Experimental findings from paper PMC6934184, “Selective DNA-PKcs inhibition extends the therapeutic index of localized radiotherapy and chemotherapy” (The Journal of Clinical Investigation, 2019) are described below.

The test has as its target T1, MYLK2 (skMLCK) (Homo sapiens, UniProt Q9H1R3).
T1 construct: purchased Thermo Fisher Scientific (Life Technologies) SelectScreen
Kind of test: SelectScreen Z'LYTE. The class given is biochemical. How it is done:
The in vitro kinase selectivity of NU5455 was determined using the SelectScreen Broad Assay Panel (Thermo Fisher Scientific) involving activity and binding assays (Supplemental Table 1). […] Class IA PI3Ks were measured using the p85α subunit.
Kinase [ATP] % Assay Kinase [ATP] % Assay Kinase [ATP] % Assay Kinase [ATP] % Assay
DNA-PK Km app 98.3 Z LATS2 n/a 4.7 L KIT D820E n/a 1.3 L GSK3B (GSK3 beta) Km app -2.5 Z
PIK3C3 (hVPS34) Km app 85.9 A PRKCZ (PKC zeta) Km app 4.7 Z GRK1 n/a 1.3 L BMPR2 n/a -2.5 L
PIK3C2B (PI3K-C2 beta) 10 28.9 A FGFR1 Km app 4.7 Z BRSK2 n/a 1.2 L CDC42 BPB (MRCKB) Km app -2.5 Z
SNF1LK2 Km app 26.6 Z MINK1 Km app 4.6 Z NUAK1 (ARK5) Km app 1.2 A AMPK (A2/B2/G2) n/a -2.6 L
HCK Km app 18.0 Z CSF1R (FMS) Km app 4.3 Z CDK9/cyclin K n/a 1.0 L PRKG1 Km app -2.7 Z
NEK2 Km app 17.8 Z CSNK1G3 (CK1 gamma 3) Km app 4.2 Z NUAK2 n/a 1.0 L KIT T670E n/a -2.8 L
ALK Km app 17.3 Z STK32C (YANK3) n/a 4.2 L CDK2/cyclin O n/a 0.9 L ERBB4 (HER4) Km app -2.8 Z
FGFR3 K650M n/a 16.5 L STK22D (TSSK1) Km app 4.2 Z CAMKK2 (CaMKK beta) n/a 0.9 L PLK4 n/a -2.8 L
SIK3 n/a 16.1 L TAOK3 (JIK) n/a 4.2 L FGFR3 Km app 0.9 Z GRK7 Km app -3.0 Z
LYN A Km app 15.2 Z RPS6KA4 (MSK2) Km app 4.2 Z ULK2 n/a 0.9 L MAPKAPK2 Km app -3.1 Z
BMPR1B (ALK6) n/a 14.5 L PTK2B (FAK2) Km app 4.2 Z KIT D816V n/a 0.9 L FGFR4 Km app -3.1 Z
INSRR (IRR) Km app 14.1 Z CLK2 Km app 4.1 Z CAMK1 (CaMK1) 10 0.8 A CASK n/a -3.1 L
PLK2 Km app 14.1 Z STK24 (MST3) Km app 4.1 Z PTK6 (Brk) Km app 0.7 Z GRK5 Km app -3.2 Z
PRKACA (PKA) Km app 14.0 Z CAMK1D (CaMKI delta) Km app 4.1 Z CAMK2B (CaMKII beta) Km app 0.7 Z EGFR (ErbB1) T790M Km app -3.3 Z
EIF2AK2 (PKR) n/a 13.3 L INSR Km app 4.1 Z ACVR1 (ALK2) n/a 0.7 L PAK4 Km app -3.3 Z
PRKX Km app 12.5 Z IRAK1 Km app 4.0 A ABL1 H396P n/a 0.6 L DAPK3 (ZIPK) Km app -3.4 Z
FGR Km app 12.1 Z SRC N1 Km app 3.9 Z MERTK (cMER) A708S n/a 0.6 L RET M918T n/a -3.5 L
CLK1 Km app 11.7 Z SRPK2 Km app 3.9 Z MAPKAPK5 (PRAK) Km app 0.6 Z PRKCQ (PKC theta) Km app -3.7 Z
MARK3 Km app 11.4 Z RPS6KA6 (RSK4) Km app 3.8 Z AKT1 (PKB alpha) Km app 0.5 Z CAMKK1 (CAMKKA) n/a -3.8 L
PDGFRB (PDGFR beta) Km app 11.0 Z GRK6 Km app 3.7 Z NTRK3 (TRKC) Km app 0.4 Z FLT3 D835Y Km app -3.9 Z
PRKCN (PKD3) Km app 10.7 Z PKN1 (PRK1) Km app 3.6 Z ZAP70 Km app 0.3 Z ROCK2 Km app -4.1 Z
STK16 (PKL12) n/a 10.5 L MAP3K8 (COT) 100 3.5 Z CSNK1A1 (CK1 alpha 1) Km app 0.3 Z CHUK (IKK alpha) Km app -4.2 A
FES (FPS) Km app 10.4 Z FLT4 (VEGFR3) Km app 3.5 Z MYLK (MLCK) n/a 0.2 L AXL Km app -4.2 Z
ABL1 Km app 10.4 Z GRK4 Km app 3.5 Z MKNK2 (MNK2) n/a 0.2 L PIM2 Km app -4.3 Z
MUSK Km app 10.3 Z FRK (PTK5) Km app 3.4 Z AMPK (A1/B1/G3) n/a 0.2 L PAK1 Km app -4.4 Z
MAPK1 (ERK2) Km app 10.1 Z FYN A n/a 3.3 L MAP3K2 (MEKK2) n/a 0.1 L BMPR1A (ALK3) n/a -4.4 L
BRAF 100 9.9 Z CDK1/cyclin A2 n/a 3.3 L CDK8/cyclin C n/a 0.1 L STK4 (MST1) Km app -4.4 Z
IGF1R Km app 9.7 Z KIT V559D T670I n/a 3.1 L MARK2 Km app 0.1 Z PRKCH (PKC eta) Km app -4.6 Z
MAPK14 (p38 alpha) Km app 9.7 Z SPHK2 10 3.1 A ICK n/a 0.0 L SGKL (SGK3) Km app -4.6 Z
LCK Km app 9.6 Z FGFR3 G697C n/a 3.1 L FGFR2 Km app 0.0 Z PI4KB (PI4K beta) Km app -4.7 A
MAPK11 (p38 beta) Km app 9.5 Z RIPK2 n/a 3.1 L AKT2 (PKB beta) Km app 0.0 Z PRKCE (PKC epsilon) Km app -4.9 Z
SRC Km app 9.5 Z PAK6 Km app 3.0 Z EPHB2 Km app -0.1 Z PHKG1 Km app -5.0 Z
CHEK1 (CHK1) Km app 9.3 Z LYN B Km app 3.0 Z TGFBR2 n/a -0.1 L PDGFRA D842V Km app -5.0 Z
CAMK2D (CaMKII delta) Km app 9.3 Z DAPK2 n/a 2.9 L TEK (Tie2) Km app -0.1 Z PRKG2 (PKG2) Km app -5.1 Z
PLK1 Km app 9.2 Z EPHA4 Km app 2.9 Z AURKA (Aurora A) Km app -0.1 Z TYRO3 (RSE) Km app -5.1 Z
RET Y791F Km app 9.2 Z PIK3CG (p110 gamma) Km app 2.9 A KIT D816H n/a -0.2 L TAOK2 (TAO1) Km app -5.1 Z
FLT3 Km app 9.1 Z HIPK1 (Myak) Km app 2.8 Z KIT N822K n/a -0.2 L EPHB4 Km app -5.3 Z
MAPK10 (JNK3) 100 9.0 Z ADRBK2 (GRK3) Km app 2.8 Z PRKACG (PRKAC gamma) n/a -0.2 L AURKC (Aurora C) Km app -5.4 Z
CSNK2A2 (CK2 alpha 2) Km app 8.7 Z STK17B (DRAK2) n/a 2.7 L TEK (TIE2) Y1108F n/a -0.3 L JAK1 Km app -5.7 Z […]

One may read the inhibition as the change of the read-out against control, counted positive when it falls.

T1 sequence (Q9H1R3 whole entry): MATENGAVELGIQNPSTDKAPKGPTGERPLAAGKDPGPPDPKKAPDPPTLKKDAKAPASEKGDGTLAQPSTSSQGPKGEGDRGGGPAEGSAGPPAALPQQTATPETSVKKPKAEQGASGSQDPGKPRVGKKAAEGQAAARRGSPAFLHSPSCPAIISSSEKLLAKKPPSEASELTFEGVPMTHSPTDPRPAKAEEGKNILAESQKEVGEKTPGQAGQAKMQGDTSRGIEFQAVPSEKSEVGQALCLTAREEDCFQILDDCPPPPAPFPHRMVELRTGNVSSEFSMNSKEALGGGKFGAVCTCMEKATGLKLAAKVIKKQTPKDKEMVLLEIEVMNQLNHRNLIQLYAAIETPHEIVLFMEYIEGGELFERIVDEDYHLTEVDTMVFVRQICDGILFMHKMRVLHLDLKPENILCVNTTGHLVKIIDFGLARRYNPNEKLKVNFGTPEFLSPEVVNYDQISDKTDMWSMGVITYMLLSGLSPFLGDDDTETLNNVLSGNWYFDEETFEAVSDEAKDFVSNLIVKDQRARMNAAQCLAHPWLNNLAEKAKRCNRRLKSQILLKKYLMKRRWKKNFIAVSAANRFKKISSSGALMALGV

Turning to `CN(C(=O)CN1CCOCC1)c1ccc2sc3c(-c4cccc5c(=O)cc(N6CC7CCC(C6)O7)oc45)cccc3c2c1` [NU5455], the inhibition at 1 µM is -2.2%.
